Measured values taken from patent publication US9770445B2, “Sulfoximine substituted 5-fluoro-N-(pyridin-2-yl)pyridin-2-amine derivatives and their use as CDK9 kinase inhibitors” (BAYER PHARMA AKTIENGESELLSCHAFT, priority 2013, dated 2017).

What was measured:
CDK9/CycT1 = target: T1, CDK9/CycT1 (Homo sapiens, UniProt P50750); test: CDK9/CycT1 high ATP kinase assay (Method 1b, TR-FRET); assay type: biochemical; details: 2 mM ATP
T1 construct: Recombinant full-length His-tagged human CDK9 and CycT1; His; purchased Invitrogen PV4131; host or cells: insect cells
Protocol: 1b. CDK9/CyeT1 High ATP Kinase Assay
CDK9/CycT1-inhibitory activity of compounds of the present invention at a high ATP concentration after preincubation of enzyme and test compounds was quantified employing the CDK9/CycT1 TR-FRET assay as described in the following paragraphs.
Recombinant full-length His-tagged human CDK9 and CycT1, expressed in insect cells and purified by Ni-NTA affinity chromatography, were purchase from Invitrogen (Cat. No PV4131). As substrate for the kinase reaction biotinylated peptide biotin-Ttds-YISPLKSPYKISEG (C-terminus in amid form) was used which can be purchased e.g. form the company JERINI peptide technologies (Berlin, Germany). For the assay 50 nl of a 100 fold concentrated solution of the test compound in DMSO was pipetted into a black low volume 384 well microtiter plate (Greiner Bio-One, Frickenhausen, Germany), 2 μl of a solution of CDK9/CycT1 in aqueous assay buffer [50 mM Tris/HCl pH 8.0, 10 mM MgCl2, 1.0 mM dithiothreitol, 0.1 mM sodium ortho-vanadate, 0.01% (v/v) Nonidet-P40 (Sigma)] were added and the mixture was incubated for […] at 22° C. to allow pre-binding of the test compounds to the enzyme before the start of the kinase reaction. Then the kinase reaction was started by the addition of 3 μl of a solution of adenosine-tri-phosphate (ATP, 3.3 mM=>final conc. in the 5 μl assay volume is 2 mM) and substrate (1.67 μM=>final conc. in the 5 μl assay volume is 1 μM) in assay buffer and the resulting mixture was incubated for a reaction time of […] at 22° C. The concentration of CDK9/CycT1 was adjusted depending of the activity of the enzyme lot and was chosen appropriate to have the assay in the linear range, typical concentrations were in the range of 0.5 μg/mL The reaction was stopped by the addition of 5 μl of a solution of TR-FRET detection reagents (0.2 μM streptavidine-XL665 [Cisbio Bioassays, Codolet, France] and 1 nM anti-RB(pSer807/pSer811)-antibody from BD Pharmingen [#558389] and 1.2 nM LANCE EU-W1024 labeled anti-mouse IgG antibody [Perkin-Elmer, product no. AD0077]) in an aqueous EDTA-solution (100 mM EDTA, 0.2% (w/v) bovine serum albumin in 100 mM HEPES/NaOH pH 7.0).
The resulting mixture was incubated 1 h at 22° C. to allow the formation of complex between the phosphorylated biotinylated peptide and the detection reagents. Subsequently the amount of phosphorylated substrate was evaluated by measurement of the resonance energy transfer from the Eu-chelate to the streptavidine-XL. Therefore, the fluorescence emissions at 620 nm and 665 nm after excitation at 350 nm was measured in a HTRF reader, e.g. a Rubystar (BMG Labtechnologies, Offenburg, Germany) or a Viewlux (Perkin-Elmer). The ratio of the emissions at 665 nm and at […] was taken as the measure for the amount of phosphorylated substrate. The data were normalised (enzyme reaction without inhibitor=0% inhibition, all other assay components but no enzyme=100% inhibition).

[1] = system: NCI-H460, human non-small cell lung carcinoma cells; test: Proliferation assay, NCI-H460 (crystal violet); assay type: cell-based; details: 96 h, NCI-H460, 4 days, read-out: Inhibition of NCI-H460 cell proliferation
Protocol: (§1) Cultivated tumour cells (HeLa, human cervical tumour cells, ATCC CCL-2; NCI-H460, human non-small cell lung carcinoma cells, ATCC HTB-177; A2780, human ovarian carcinoma cells, ECACC #93112519; DU 145, hormone-independent human prostate carcinoma cells, ATCC HTB-81; HeLa-MaTu-ADR, multidrug-resistant human cervical carcinoma cells, EPO-GmbH Berlin; Caco-2, human colorectal carcinoma cells, ATCC HTB-37; B16F10, mouse melanoma cells, ATCC CRL-6475) were plated at a density of 5,000 cells/well (DU145, HeLa-MaTu-ADR), 3,000 cells/well (NCI-H460, HeLa), 2,500 cells/well (A2780), 1,500 cells/well (Caco-2), or 1,000 cells/well (B16F10) in a 96-well multititer plate in 200 μL of their respective growth medium supplemented 10% fetal calf serum. After 24 hours, the cells of one plate (zero-point plate) were stained with crystal violet (see below), while the medium of the other plates was replaced by fresh culture medium (200 μl), to which the test substances were added in various concentrations (0 μM, as well as in the range of 0.001-10 μM; the final concentration of the solvent dimethyl sulfoxide was 0.5%). The cells were incubated for 4 days in the presence of test substances. Cell proliferation was determined by staining the cells with crystal violet: the cells were fixed by adding 20 μl/measuring point of an 11% glutaric aldehyde solution for 15 minutes at room temperature. After three washing cycles of the fixed cells with water, the plates were dried at room temperature. The cells were stained by adding 100 μl/measuring point of a 0.1% crystal violet solution (pH 3.0). After three washing cycles of the stained cells with water, the plates were dried at room temperature. The dye was dissolved by adding 100 μl/measuring point of a 10% acetic acid solution. The extinction was determined by photometry at a wavelength of 595 nm. The change of cell number, in percent, was calculated by normalization of the measured values to the extinction values of the zero-point plate (=0%) and the extinction of the untreated (0 μm) cells (=100%). The IC50 values (inhibitory concentration at 50% of maximal effect) were determined by means of a 4 parameter fit.

[2] = system: DU 145, hormone-independent human prostate carcinoma cells; test: Proliferation assay, DU145 (crystal violet); assay type: cell-based; details: DU-145, 96 h, DU145, 4 days, read-out: Inhibition of DU145 cell proliferation
Protocol: as §1

[3] = system: HeLa, human cervical tumour cells; test: Proliferation assay, HeLa (crystal violet); assay type: cell-based; details: 96 h, 4 days, read-out: Inhibition of HeLa cell proliferation
Protocol: as §1

[4] = system: Caco-2, human colorectal carcinoma cells; test: Proliferation assay, Caco-2 (crystal violet); assay type: cell-based; details: 96 h, Caco-2, 4 days, read-out: Inhibition of Caco-2 cell proliferation
Protocol: as §1

[5] = system: B16F10, mouse melanoma cells; test: Proliferation assay, B16F10 (crystal violet); assay type: cell-based; details: B16-F10, 96 h, B16F10, 4 days, read-out: Inhibition of B16F10 cell proliferation
Protocol: as §1

[6] = system: HeLa-MaTu-ADR, multidrug-resistant human cervical carcinoma cells; test: Proliferation assay, HeLa-MaTu-ADR (crystal violet); assay type: cell-based; details: 96 h, 4 days, read-out: Inhibition of HeLa-MaTu-ADR cell proliferation
Protocol: as §1

T1 sequence (P50750 whole entry): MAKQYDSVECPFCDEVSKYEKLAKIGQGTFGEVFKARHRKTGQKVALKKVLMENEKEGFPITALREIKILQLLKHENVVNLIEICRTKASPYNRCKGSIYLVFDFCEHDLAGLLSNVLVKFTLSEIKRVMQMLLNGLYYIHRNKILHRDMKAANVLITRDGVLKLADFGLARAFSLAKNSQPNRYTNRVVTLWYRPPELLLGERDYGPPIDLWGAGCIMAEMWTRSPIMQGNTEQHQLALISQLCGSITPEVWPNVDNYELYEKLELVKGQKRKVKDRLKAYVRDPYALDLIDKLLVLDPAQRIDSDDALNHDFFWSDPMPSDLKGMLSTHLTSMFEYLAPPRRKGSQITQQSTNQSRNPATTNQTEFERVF
T1 sequence (O60563 whole entry partner): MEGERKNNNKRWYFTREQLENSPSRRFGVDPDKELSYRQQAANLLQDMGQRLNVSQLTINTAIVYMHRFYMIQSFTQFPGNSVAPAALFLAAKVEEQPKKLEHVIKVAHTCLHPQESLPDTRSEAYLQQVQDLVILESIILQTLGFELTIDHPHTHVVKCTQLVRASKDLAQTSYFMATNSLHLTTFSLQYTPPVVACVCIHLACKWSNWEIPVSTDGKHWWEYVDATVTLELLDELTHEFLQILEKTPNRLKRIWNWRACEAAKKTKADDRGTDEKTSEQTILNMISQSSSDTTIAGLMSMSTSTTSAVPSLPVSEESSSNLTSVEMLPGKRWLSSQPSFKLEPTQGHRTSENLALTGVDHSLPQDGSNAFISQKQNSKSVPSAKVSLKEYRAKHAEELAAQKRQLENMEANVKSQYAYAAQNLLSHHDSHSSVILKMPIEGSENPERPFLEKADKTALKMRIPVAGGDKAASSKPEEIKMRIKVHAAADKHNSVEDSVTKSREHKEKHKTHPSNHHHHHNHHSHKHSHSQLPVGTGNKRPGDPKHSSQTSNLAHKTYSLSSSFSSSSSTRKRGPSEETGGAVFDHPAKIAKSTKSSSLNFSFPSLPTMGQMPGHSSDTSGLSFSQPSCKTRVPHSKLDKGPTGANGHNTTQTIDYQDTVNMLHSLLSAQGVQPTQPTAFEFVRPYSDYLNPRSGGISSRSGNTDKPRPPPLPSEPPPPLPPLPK

SMILES	IC50 (CDK9/CycT1) [nM]	IC50 [1] [nM]	IC50 [2] [nM]	IC50 [3] [nM]	IC50 [4] [nM]	IC50 [5] [nM]	IC50 [6] [nM]
CS(=N)(=O)Cc1ccnc(Nc2cc(-c3ccc(F)c4ccoc34)c(F)cn2)c1 (racemic) [Example 5, (rac)-5-Fluoro-4-(4-fluoro-1-benzofuran-7-yl)-N-{4-[(S-methylsulfonimidoyl)methyl]pyridin-2-yl}pyridin-2-amine]	2	120	55	31	46	53	42
CC(=O)N=S(C)(=O)Cc1ccnc(Nc2cc(-c3ccc(F)c4ccoc34)c(F)cn2)c1 (racemic) [Example 10, (rac)-N-{[(2-{[5-fluoro-4-(4-fluoro-1-benzofuran-7-yl)pyridin-2-yl]amino}pyridin-4-yl)methyl](methyl)oxido-λ^6-sulfanylidene}acetamide]	2.3						
CCNC(=O)N=S(C)(=O)Cc1ccnc(Nc2cc(-c3ccc(F)c4ccoc34)c(F)cn2)c1 (racemic) [Example 12, (rac)-1-Ethyl-3-{[(2-{[5-fluoro-4-(4-fluoro-1-benzofuran-7-yl)pyridin-2-yl]amino}pyridin-4-yl)methyl](methyl)oxido-λ^6-sulfanylidene}urea]	1.9						
CS(=O)(Cc1cc(F)nc(Nc2cc(-c3ccc(F)c4ccoc34)c(F)cn2)c1)=NC(=O)C(F)(F)F (racemic) [Example 2, (rac)-2,2,2-Trifluoro-N-{[(2-fluoro-6-{[5-fluoro-4-(4-fluoro-1-benzofuran-7-yl)pyridin-2-yl]amino}pyridin-4-yl)methyl](methyl)oxido-λ^6-sulfanylidene}acetamide]	7.8	32	32	31	35	42	30
CS(=O)(Cc1ccnc(Nc2cc(-c3ccc(F)c4ccoc34)c(F)cn2)c1)=NC(=O)NCC(F)(F)F (racemic) [Example 13, (rac)-1-{[(2-{[5-Fluoro-4-(4-fluoro-1-benzofuran-7-yl)pyridin-2-yl]amino}pyridin-4-yl)methyl](methyl)oxido-λ^6-sulfanylidene}-3-(2,2,2-trifluoroethyl)urea]	2.3						
CS(=O)(Cc1cc(Nc2cc(-c3ccc(F)c4ccoc34)c(F)cn2)nc(C(F)(F)F)c1)=NC(=O)C(F)(F)F (racemic) [Example 4, (rac)-2,2,2-Trifluoro-N-[{[2-{[5-fluoro-4-(4-fluoro-1-benzofuran-7-yl)pyridin-2-yl]amino}-6-(trifluoromethyl)pyridin-4-yl]methyl}(methyl)oxido-λ^6-sulfanylidene]acetamide]	7	36	37	31	40	44	30
CCOC(=O)N=S(C)(=O)Cc1ccnc(Nc2cc(-c3ccc(F)c4ccoc34)c(F)cn2)c1 (racemic) [Example 11, (rac)-Ethyl {[(2-{[5-fluoro-4-(4-fluoro-1-benzofuran-7-yl)pyridin-2-yl]amino}pyridin-4-yl)methyl](methyl)oxido-λ^6-sulfanylidene}carbamate]	2						
CS(=O)(Cc1ccnc(Nc2cc(-c3ccc(F)c4ccoc34)c(F)cn2)c1)=NC(=O)C(F)(F)F (racemic) [Example 6, (rac)-2,2,2-Trifluoro-N-{[(2-{[5-fluoro-4-(4-fluoro-1-benzofuran-7-yl)pyridin-2-yl]amino}pyridin-4-yl)methyl](methyl)oxido-λ^6-sulfanylidene}acetamide]	6.4	46	42	42	58	88	52

Compounds with a lower IC50 (CDK9/CycT1), results first:

IC50 (CDK9/CycT1) [nM]	IC50 [1] [nM]	IC50 [2] [nM]	IC50 [3] [nM]	IC50 [4] [nM]	IC50 [5] [nM]	IC50 [6] [nM]	SMILES
1.6							CS(=O)(Cc1ccnc(Nc2cc(-c3ccc(F)c4ccoc34)c(F)cn2)c1)=NC#N (racemic) [Example 9, (rac)-{[(2-{[5-fluoro-4-(4-fluoro-1-benzofuran-7-yl)pyridin-2-yl]amino}pyridin-4-yl)methyl](methyl)oxido-λ^6-sulfanylidene}cyanamide]
1.5	36	33	30	34	41	30	CS(=N)(=O)Cc1cc(F)nc(Nc2cc(-c3ccc(F)c4ccoc34)c(F)cn2)c1 (racemic) [Example 1, (rac)-5-Fluoro-4-(4-fluoro-1-benzofuran-7-yl)-N-{6-fluoro-4-[(S-methylsulfonimidoyl)methyl]pyridin-2-yl}pyridin-2-amine]
1.3	35	11	7.6	9.4	32	8.8	CCc1cc(CS(C)(=N)=O)cc(Nc2cc(-c3ccc(F)c4ccoc34)c(F)cn2)n1 (racemic) [Example 8, (rac)-N-{6-Ethyl-4-[(S-methylsulfonimidoyl)methyl]pyridin-2-yl}-5-fluoro-4-(4-fluoro-1-benzofuran-7-yl)pyridin-2-amine]
1.3	33	14	11	14	17	9.1	Cc1cc(CS(C)(=N)=O)cc(Nc2cc(-c3ccc(F)c4ccoc34)c(F)cn2)n1 (racemic) [Example 7, (rac)-5-Fluoro-4-(4-fluoro-1-benzofuran-7-yl)-N-{6-methyl-4-[(S-methylsulfonimidoyl)-methyl]pyridin-2-yl}pyridin-2-amine]
